The numbers were not newly measured in patent US10456383B2, “Targeted approach in the management of Epidermolysis bullosa” (The Board of Trustees of the Leland Stanford Junior …, priority 2017, dated 2019), which cites them from elsewhere.

Each structure is given as a SMILES string.

For data set [1] the following is noted: topical formulations, all cases; standard serum levels required for immunosuppression 5-15 ng/ml.
The conditions of data set [2]: ointment plasticized base containing no water (PCCA).

For the molecule `CO[C@H]1C[C@@H]2CC[C@@H](C)[C@@](O)(O2)C(=O)C(=O)N2CCCC[C@H]2C(=O)O[C@H]([C@H](C)C[C@@H]2CC[C@@H](O)[C@H](OC)C2)CC(=O)[C@H](C)/C=C(\C)[C@@H](O)[C@@H](OC)C(=O)[C@H](C)C[C@H](C)/C=C/C=C/C=C/1C` [Sirolimus], the “systemic level of rapamycin” value in data set [1] is given as “less than 2 ng/ml”. The sirolimus stability result in data set [2] was “at least 6 months”.
